Measurements published in publication PMC12505902, “Inhibitors of trehalose-6-phosphate synthase activity in fungal pathogens compromise thermal tolerance pathways” (mBio, 2025).

Tests used:
Experiment in all cases: Fungicidal spot assay on compound-free YPD plates
Type in all cases: cell-based
[1] = system: C. deneoformans
Procedure: (§1) Fig 4 4456dh inhibits the growth of Candida and Cryptococcus species. Two-fold dose response assays were performed against (A) C. albicans at 42°C and C. auris at 39°C, (B) C. glabrata at 42°C, and (C) C. neoformans, C. deneoformans, and C. gattii at 37°C. 4456dh was administered at the concentrations indicated. Cultures were grown in YPD at the listed temperatures for 48 hours for Candida species and 72 hours for Cryptococcus species. Experimental temperatures reflect the temperatures at which the fungi experience heat stress. Left: relative growth of treated samples was calculated by averaging technical triplicates and normalizing the OD600 of each treated well to the average OD600 of the untreated WT controls, after the absorbance due to the compound was subtracted. The MIC80 values, calculated based on the OD600 values, are indicated in the white text on each heat map. Right: representative spot assays show the ability of cells to grow after exposure to 4456dh and indicate fungicidal activity of 4456dh. TEXT PRINTED IN THE PICTURE: (A) 4456dh: C. albicans 42 °C: 13 mM; C. auris 39 °C: 7 mM | (B) 4456dh: C. glabrata 42 °C: 7.8 μM | (C) 4456dh: C. neoformans 37 °C: 7 mM; C. deneoformans 37 °C: 3 mM; C. gattii 37 °C: 7 mM DOUBTS OF THE COPYIST ABOUT THIS PICTURE: 4456dh, all panels: the picture prints no measure name with the white values on the heat maps, so each value is given only with its organism and temperature
(§2) We next tested the activity of 4456dh on Cryptococcus species at 37°C.
(§3) 123 hours. […]
(§4) 126 medium. Growth was plotted as a heat map using Excel.
(§5) 127 Wild-t y pe C. neoformans strains H99, wild-type C. deneoformans JEC21 and wild- t y pe C. gattii
(§6) 128 R265 were cultured overnight in YPD (yeast-peptone- dextrose) medium at 30 °C. Growth of the
(§7) 129 overnight cultures was quantified by measuring the OD600 and corrected for the background
(§8) 130 absorbance of the medium. Antifungal potency for 4456dh was assessed by minimum inhibitory
(§9) 131 concentration (MIC) dose-response assays performed under standard Clinical and Lab Standards
(§10) 132 Institute (CLSI) conditions. A volume of 125 µL from each cell suspension was dispensed into the
(§11) 133 wells of 96-well flat-bottom microtiter plates (Corning). An additional 25 µL of 4456dh from a series
(§12) 134 of dilutions from the 157 mM stock solution prepared in water was added to each well. Following […]
(§13) 137 replicates. Growth, as determined by a reading of absorbance at 600 nm, was normalized to
(§14) 138 untreated controls and was corrected for the absorbance of 4456dh in the YPD medium. […]
(§15) 139 minimum inhibitory concentration causing 80% growth reduction, or MIC80, was determined based […]
(§16) 157 Optical density (OD600) was determined with an Infinite PRO plate reader ( Tecan). […]

[2] = system: C. neoformans; settings: 37°C exposure
Procedure: as §1, §2, §3, §4, §5, §6, §7, §8, §9, §10, §11, §12, §13, §14, §15, §16

[3] = system: C. gattii; settings: 37°C exposure
Procedure: as §1, §2, §3, §4, §5, §6, §7, §8, §9, §10, §11, §12, §13, §14, §15, §16

Cn1cc(-c2csc(NC(=O)Cc3ccccn3)n2)cn1 [Compound 4456dh] was tested, and the fungicidal activity ([1]; 30°C, 13 mM 4456dh) was “displayed fungicidal activity”, the fungicidal activity ([1]; 37°C exposure) was “Fungicidal activity of 4456dh was also detected” and the fungicidal activity [2] was “Fungicidal activity of 4456dh was also detected”. For the same compound, the fungicidal activity [3] was “Fungicidal activity of 4456dh was also detected”.
